Laboratory results published in patent publication US6841519B1, “Isoxazoline derivatives and herbicides containing the same as the active ingredient” (Kumiai Chemical Industry Co., Ltd., priority 1999, dated 2005).

What was measured:
Format in all cases: in vivo
[1] = test system: Echinochloa oryzicola Vasing. (Eo); assay: Test for herbicidal effect by paddy field soil treatment (Test Example 1); conditions: application amount (active ingredient) 100 g/10 a, examined at the 21st day from the treatment, index per Table 40
Procedure, shortened: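 Scored on a standard scale at day 21 in the greenhouse: herbicidal effect of wettable powder applied to flooded water (3 cm depth) at 100 g a.i./10 ares, one day after sowing Eo into puddled paddy soil.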

[2] = test system: Echinochloa crus-galli (L.) Beauv. var. crusgall (Ec); assay: Test for herbicidal effect by upland field soil treatment (Test Example 2), Ec
Procedure, shortened: (§1)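 Pre-emergence soil treatment: wettable powder diluted in water and sprayed on soil just sown with Ec and Se seeds, delivering 100 g active ingredient per 10 ares in 100 liters per 10 ares. Herbicidal effect was rated against a fixed scale 21 days later, after greenhouse growth.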

[3] = test system: Echinochloa crus-galli (L.) Beauv. var. crusgalli (Ec); assay: Test for herbicidal effect by upland foliage treatment (Test Example 3); conditions: 100 g/10 a active ingredient, examined at 14th day
Procedure, shortened: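 Scored 14 days post-spray against a graded standard: greenhouse-grown Ec, 2 weeks old in upland soil, received whole-foliage application of diluted wettable powder (100 g active ingredient per 10 ares, spray volume 100 L per 10 ares).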

[4] = test system: Setaria viridis (L.) Beauv. (Se); assay: Test for herbicidal effect by upland field soil treatment (Test Example 2), Se
Procedure, shortened: as §1

[5] = application amount (active ingredient) 100 g/10 a, examined at the 21st day from the treatment, index per Table 40
[6] = 100 g/10 a active ingredient, examined at 21st day

CCC1(CC)CC([S+]([O-])Cc2c(F)cccc2F)=NO1 (centres unmarked) [Compound 1-363]
Herbicidal effect to Eo [1]: 5 (A herbicidal effect or phytotoxicity of 90% or more)
Herbicidal effect to Ec [2, 5]: 5 (A herbicidal effect or phytotoxicity of 90% or more)
Herbicidal effect to Ec [3]: 4 (A herbicidal effect or phytotoxicity of 70% to less than 90%)
Herbicidal effect to Se [4, 5]: 4 (A herbicidal effect or phytotoxicity of 70% to less than 90%)

CCC1(CC)CC(S(=O)(=O)Cc2c(F)cccc2F)=NO1 [Compound 1-364]
Herbicidal effect to Eo [1]: 5 (A herbicidal effect or phytotoxicity of 90% or more)
Herbicidal effect to Ec [2, 5]: 5 (A herbicidal effect or phytotoxicity of 90% or more)
Herbicidal effect to Ec [3]: 4 (A herbicidal effect or phytotoxicity of 70% to less than 90%)
Herbicidal effect to Se [4, 5]: 5 (A herbicidal effect or phytotoxicity of 90% or more)

CCCC1(C)CC(S(=O)(=O)Cc2c(F)cccc2F)=NO1 (centres unmarked) [Compound 1-366]
Herbicidal effect to Eo [1]: 5 (A herbicidal effect or phytotoxicity of 90% or more)
Herbicidal effect to Ec [2, 5]: 5 (A herbicidal effect or phytotoxicity of 90% or more)
Herbicidal effect to Ec [3]: 4 (A herbicidal effect or phytotoxicity of 70% to less than 90%)
Herbicidal effect to Se [4, 5]: 5 (A herbicidal effect or phytotoxicity of 90% or more)

CC1(C2CC2)CC(S(=O)(=O)Cc2c(F)cccc2F)=NO1 (centres unmarked) [Compound 1-378]
Herbicidal effect to Eo [1]: 5 (A herbicidal effect or phytotoxicity of 90% or more)
Herbicidal effect to Ec [2, 5]: 5 (A herbicidal effect or phytotoxicity of 90% or more)
Herbicidal effect to Ec [3]: 5 (A herbicidal effect or phytotoxicity of 90% or more)
Herbicidal effect to Se [4, 5]: 5 (A herbicidal effect or phytotoxicity of 90% or more)

O=S(=O)(Cc1c(F)cccc1F)C1=NOC2(CC2)C1 [Compound 1-380]
Herbicidal effect to Eo [1]: 5 (A herbicidal effect or phytotoxicity of 90% or more)
Herbicidal effect to Ec [2, 5]: 5 (A herbicidal effect or phytotoxicity of 90% or more)
Herbicidal effect to Ec [3]: 4 (A herbicidal effect or phytotoxicity of 70% to less than 90%)
Herbicidal effect to Se [4, 5]: 4 (A herbicidal effect or phytotoxicity of 70% to less than 90%)

O=S(=O)(Cc1c(F)cccc1F)C1=NOC2(CCCC2)C1 [Compound 1-383]
Herbicidal effect to Eo [1]: 5 (A herbicidal effect or phytotoxicity of 90% or more)
Herbicidal effect to Ec [2, 5]: 5 (A herbicidal effect or phytotoxicity of 90% or more)
Herbicidal effect to Ec [3]: 4 (A herbicidal effect or phytotoxicity of 70% to less than 90%)
Herbicidal effect to Se [4, 5]: 4 (A herbicidal effect or phytotoxicity of 70% to less than 90%)

CC1(C)CC(S(=O)(=O)Cc2cccc(Cl)c2Cl)=NO1 [Compound 1-487]
Herbicidal effect to Eo [1]: 5 (A herbicidal effect or phytotoxicity of 90% or more)
Herbicidal effect to Ec [2, 5]: 5 (A herbicidal effect or phytotoxicity of 90% or more)
Herbicidal effect to Ec [3]: 4 (A herbicidal effect or phytotoxicity of 70% to less than 90%)
Herbicidal effect to Se [4, 5]: 5 (A herbicidal effect or phytotoxicity of 90% or more)

CC1(C)CC(S(=O)(=O)Cc2ccc(Cl)cc2Cl)=NO1 [Compound 1-488]
Herbicidal effect to Eo [1]: 5 (A herbicidal effect or phytotoxicity of 90% or more)
Herbicidal effect to Ec [2, 5]: 5 (A herbicidal effect or phytotoxicity of 90% or more)
Herbicidal effect to Ec [3]: 4 (A herbicidal effect or phytotoxicity of 70% to less than 90%)
Herbicidal effect to Se [4, 5]: 4 (A herbicidal effect or phytotoxicity of 70% to less than 90%)

CC1(C)CC(S(=O)(=O)Cc2cc(Cl)ccc2Cl)=NO1 [Compound 1-489]
Herbicidal effect to Eo [1]: 5 (A herbicidal effect or phytotoxicity of 90% or more)
Herbicidal effect to Ec [2, 5]: 5 (A herbicidal effect or phytotoxicity of 90% or more)
Herbicidal effect to Ec [3]: 4 (A herbicidal effect or phytotoxicity of 70% to less than 90%)
Herbicidal effect to Se [4, 5]: 5 (A herbicidal effect or phytotoxicity of 90% or more)

CC1(C)CC(S(=O)(=O)Cc2c(Cl)cccc2Cl)=NO1 [Compound 1-490]
Herbicidal effect to Eo [1]: 5 (A herbicidal effect or phytotoxicity of 90% or more)
Herbicidal effect to Ec [2, 5]: 5 (A herbicidal effect or phytotoxicity of 90% or more)
Herbicidal effect to Ec [3]: 4 (A herbicidal effect or phytotoxicity of 70% to less than 90%)
Herbicidal effect to Se [4, 5]: 4 (A herbicidal effect or phytotoxicity of 70% to less than 90%)

CC1(C)CC(S(=O)(=O)Cc2ccc(Cl)c(Cl)c2)=NO1 [Compound 1-491]
Herbicidal effect to Eo [1]: 5 (A herbicidal effect or phytotoxicity of 90% or more)
Herbicidal effect to Ec [2, 5]: 5 (A herbicidal effect or phytotoxicity of 90% or more)
Herbicidal effect to Ec [3]: 4 (A herbicidal effect or phytotoxicity of 70% to less than 90%)
Herbicidal effect to Se [4, 5]: 5 (A herbicidal effect or phytotoxicity of 90% or more)

CC1(C)CC(S(=O)(=O)Cc2cc(Cl)cc(Cl)c2)=NO1 [Compound 1-492]
Herbicidal effect to Eo [1]: 5 (A herbicidal effect or phytotoxicity of 90% or more)
Herbicidal effect to Ec [2, 5]: 5 (A herbicidal effect or phytotoxicity of 90% or more)
Herbicidal effect to Ec [3]: 4 (A herbicidal effect or phytotoxicity of 70% to less than 90%)
Herbicidal effect to Se [4, 5]: 5 (A herbicidal effect or phytotoxicity of 90% or more)

CC1(C)CC(S(=O)(=O)Cc2c(F)cccc2Cl)=NO1 [Compound 1-494]
Herbicidal effect to Eo [1]: 5 (A herbicidal effect or phytotoxicity of 90% or more)
Herbicidal effect to Ec [2, 5]: 5 (A herbicidal effect or phytotoxicity of 90% or more)
Herbicidal effect to Ec [3]: 5 (A herbicidal effect or phytotoxicity of 90% or more)
Herbicidal effect to Se [4, 5]: 5 (A herbicidal effect or phytotoxicity of 90% or more)

CC1C(S(=O)(=O)Cc2c(F)cccc2F)=NOC1(C)C (centres unmarked) [Compound 1-495]
Herbicidal effect to Eo [1]: 5 (A herbicidal effect or phytotoxicity of 90% or more)
Herbicidal effect to Ec [2, 5]: 5 (A herbicidal effect or phytotoxicity of 90% or more)
Herbicidal effect to Ec [3]: 5 (A herbicidal effect or phytotoxicity of 90% or more)
Herbicidal effect to Se [4, 5]: 5 (A herbicidal effect or phytotoxicity of 90% or more)

CC1ON=C(S(=O)(=O)Cc2c(F)cccc2F)C1C (centres unmarked) [Compound 1-496]
Herbicidal effect to Eo [1]: 5 (A herbicidal effect or phytotoxicity of 90% or more)
Herbicidal effect to Ec [2, 5]: 5 (A herbicidal effect or phytotoxicity of 90% or more)
Herbicidal effect to Ec [3]: 5 (A herbicidal effect or phytotoxicity of 90% or more)
Herbicidal effect to Se [4, 5]: 4 (A herbicidal effect or phytotoxicity of 70% to less than 90%)

CC1(C)CC(S(=O)(=O)Cc2ccc(F)c(F)c2)=NO1 [Compound 1-497]
Herbicidal effect to Eo [1]: 5 (A herbicidal effect or phytotoxicity of 90% or more)
Herbicidal effect to Ec [2, 5]: 5 (A herbicidal effect or phytotoxicity of 90% or more)
Herbicidal effect to Ec [3]: 5 (A herbicidal effect or phytotoxicity of 90% or more)
Herbicidal effect to Se [4, 5]: 5 (A herbicidal effect or phytotoxicity of 90% or more)

CCc1cccc(CC)c1CS(=O)(=O)C1=NOC(C)(C)C1 [Compound 1-502]
Herbicidal effect to Eo [1]: 5 (A herbicidal effect or phytotoxicity of 90% or more)
Herbicidal effect to Ec [2, 6]: 5 (A herbicidal effect or phytotoxicity of 90% or more)
Herbicidal effect to Ec [3]: 5 (A herbicidal effect or phytotoxicity of 90% or more)
Herbicidal effect to Se [4, 6]: 5 (A herbicidal effect or phytotoxicity of 90% or more)

CC1(C)CC(S(=O)(=O)Cc2cccc(F)c2F)=NO1 [Compound 1-504]
Herbicidal effect to Eo [1]: 5 (A herbicidal effect or phytotoxicity of 90% or more)
Herbicidal effect to Ec [2, 6]: 5 (A herbicidal effect or phytotoxicity of 90% or more)
Herbicidal effect to Ec [3]: 5 (A herbicidal effect or phytotoxicity of 90% or more)
Herbicidal effect to Se [4, 6]: 5 (A herbicidal effect or phytotoxicity of 90% or more)

CC1(C)CC(S(=O)(=O)Cc2ccc(F)cc2F)=NO1 [Compound 1-505]
Herbicidal effect to Eo [1]: 5 (A herbicidal effect or phytotoxicity of 90% or more)
Herbicidal effect to Ec [2, 6]: 5 (A herbicidal effect or phytotoxicity of 90% or more)
Herbicidal effect to Ec [3]: 5 (A herbicidal effect or phytotoxicity of 90% or more)
Herbicidal effect to Se [4, 6]: 5 (A herbicidal effect or phytotoxicity of 90% or more)

CC1(C)CC(S(=O)(=O)Cc2cc(F)cc(F)c2)=NO1 [Compound 1-506]
Herbicidal effect to Eo [1]: 5 (A herbicidal effect or phytotoxicity of 90% or more)
Herbicidal effect to Ec [2, 6]: 5 (A herbicidal effect or phytotoxicity of 90% or more)
Herbicidal effect to Ec [3]: 4 (A herbicidal effect or phytotoxicity of 70% to less than 90%)
Herbicidal effect to Se [4, 6]: 5 (A herbicidal effect or phytotoxicity of 90% or more)
